Measured values published in patent publication US11844349B2, “Anti-microbial agent to control biomass accumulation in SO2 scrubbers” (ECOLAB USA INC., priority 2016, dated 2023).

Tested on: bacterial populations native to the test sample
Test: Minimum inhibitory concentration screen of biocides under anaerobic conditions (pH indicator dye)
Format: cell-based
Conditions: pH 6.5, read-out: Minimum Inhibitory Concentration
From the text: A few exemplary biocides or a combination of one or more quaternary ammonium compounds with one additional biocide were investigated for their ability to inhibit microorganism growth. The method used to generate the data in Table 1 was based on methods for identifying the minimum inhibitory concentration of biocides or biocidal agents for use in anaerobically contaminated aqueous system as disclosed in the patent publication WO9934013A1 by Schwingel, et. al.
The method was a test assay used to rapidly screen antimicrobial agents against bacterial populations native to the test sample under anaerobic conditions. The assay utilized a pH indicator dye which is red at pH levels above 6.5 and yellow below pH 6.5. During fermentation under anaerobic conditions, volatile fatty acids were produced, which lowered the pH of the system. In the test wells, the accumulation of volatile fatty acids from actively growing and fermenting microorganisms lowered the pH causing the indicator dye to turn yellow. […]
When the control sample had turned yellow due to active fermentation and acid production, all samples were examined for color change, and the Minimum Inhibitory Concentration (MIC) values recorded. […] Because MIC values change with extended contact time, it was important to read the MIC values within 2-3 hours of the control wells turning yellow. […]

| Compound | MIC [µg/mL] |
| --- | --- |
| CN1CSC(=S)N(C)C1 [3,5-dimethyl-tetrahydro-2H-1,3,5-thiadiazine-2-thione] | 26.2 |
| N#CSCSC#N [Methylenebisthiocyanate] | 0.8 to 1.6 |
